Assay results taken from PubChem BioAssay (NCI).
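In this assay, cells in 96-well plates receive the compound at five concentrations for 48 hours. Endpoints are linearly interpolated between the surrounding concentrations. TGI: concentration producing complete growth inhibition.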

How the values were obtained:
Assay in all cases: NCI tumour cell line growth inhibition, 48 h
786-0 renal = test system: 786-0 renal
A498 renal = test system: A498 renal
A549 NSCLC = test system: A549 NSCLC
ACHN renal = test system: ACHN renal
CCRF-CEM leukemia = test system: CCRF-CEM leukemia
COLO 205 colon = test system: COLO 205 colon
DLD-1 colon = test system: DLD-1 colon
DMS 114 small cell lung = test system: DMS 114 small cell lung
DMS 273 small cell lung = test system: DMS 273 small cell lung
EKVX NSCLC = test system: EKVX NSCLC
HCC-2998 colon = test system: HCC-2998 colon
HCT-116 colon = test system: HCT-116 colon
HCT-15 colon = test system: HCT-15 colon
HL-60(TB) leukemia = test system: HL-60(TB) leukemia
HOP-62 NSCLC = test system: HOP-62 NSCLC
HOP-92 NSCLC = test system: HOP-92 NSCLC
HT29 colon = test system: HT29 colon
IGROV1 ovarian = test system: IGROV1 ovarian
K-562 leukemia = test system: K-562 leukemia
KM12 colon = test system: KM12 colon
KM20L2 colon = test system: KM20L2 colon
LOX IMVI melanoma = test system: LOX IMVI melanoma
LXFL 529 NSCLC = test system: LXFL 529 NSCLC
M14 melanoma = test system: M14 melanoma
M19-MEL melanoma = test system: M19-MEL melanoma
MALME-3M melanoma = test system: MALME-3M melanoma
MOLT-4 leukemia = test system: MOLT-4 leukemia
NCI-H226 lung = test system: NCI-H226 lung
NCI-H23 lung = test system: NCI-H23 lung
NCI-H460 lung = test system: NCI-H460 lung
OVCAR-3 ovarian = test system: OVCAR-3 ovarian
OVCAR-4 ovarian = test system: OVCAR-4 ovarian
OVCAR-5 ovarian = test system: OVCAR-5 ovarian
OVCAR-8 ovarian = test system: OVCAR-8 ovarian
RPMI-8226 leukemia = test system: RPMI-8226 leukemia
RXF 393 renal = test system: RXF 393 renal
RXF-631 renal = test system: RXF-631 renal
SF-268 CNS = test system: SF-268 CNS
SF-295 CNS = test system: SF-295 CNS
SF-539 CNS = test system: SF-539 CNS
SK-MEL-2 melanoma = test system: SK-MEL-2 melanoma
SK-MEL-28 melanoma = test system: SK-MEL-28 melanoma
SK-MEL-5 melanoma = test system: SK-MEL-5 melanoma
SK-OV-3 ovarian = test system: SK-OV-3 ovarian
SN12C renal = test system: SN12C renal
SNB-19 CNS = test system: SNB-19 CNS
SNB-75 CNS = test system: SNB-75 CNS
SNB-78 CNS = test system: SNB-78 CNS
SW-620 colon = test system: SW-620 colon
TK-10 renal = test system: TK-10 renal
U251 CNS = test system: U251 CNS
UACC-257 melanoma = test system: UACC-257 melanoma
UACC-62 melanoma = test system: UACC-62 melanoma
UO-31 renal = test system: UO-31 renal
XF 498 CNS = test system: XF 498 CNS
CAKI-1 renal = test system: CAKI-1 renal
HOP-18 NSCLC = test system: HOP-18 NSCLC
MCF7 breast = test system: MCF7 breast
NCI-H522 lung = test system: NCI-H522 lung
NCI/ADR-RES ovarian = test system: NCI/ADR-RES ovarian
P388 leukemia = test system: P388 leukemia
P388/ADR leukemia = test system: P388/ADR leukemia
SN12K1 renal = test system: SN12K1 renal

SMILES: COc1ccccc1C12OC(=O)C1(C)Oc1ccccc1C2=O (stereo unspecified)
- TGI (786-0 renal): > 100 µM
- TGI (A498 renal): > 100 µM
- TGI (A549 NSCLC): > 100 µM
- TGI (ACHN renal): > 100 µM
- TGI (CCRF-CEM leukemia): > 100 µM
- TGI (COLO 205 colon): > 100 µM
- TGI (DLD-1 colon): > 100 µM
- TGI (DMS 114 small cell lung): > 100 µM
- TGI (DMS 273 small cell lung): 86.4 µM
- TGI (EKVX NSCLC): > 100 µM
- TGI (HCC-2998 colon): > 100 µM
- TGI (HCT-116 colon): > 100 µM
- TGI (HCT-15 colon): > 100 µM
- TGI (HL-60(TB) leukemia): > 100 µM
- TGI (HOP-62 NSCLC): > 100 µM
- TGI (HOP-92 NSCLC): > 100 µM
- TGI (HT29 colon): > 100 µM
- TGI (IGROV1 ovarian): > 100 µM
- TGI (K-562 leukemia): > 100 µM
- TGI (KM12 colon): > 100 µM
- TGI (KM20L2 colon): > 100 µM
- TGI (LOX IMVI melanoma): > 100 µM
- TGI (LXFL 529 NSCLC): > 100 µM
- TGI (M14 melanoma): > 100 µM
- TGI (M19-MEL melanoma): > 100 µM
- TGI (MALME-3M melanoma): > 100 µM
- TGI (MOLT-4 leukemia): > 100 µM
- TGI (NCI-H226 lung): > 100 µM
- TGI (NCI-H23 lung): > 100 µM
- TGI (NCI-H460 lung): > 100 µM
- TGI (OVCAR-3 ovarian): > 100 µM
- TGI (OVCAR-4 ovarian): > 100 µM
- TGI (OVCAR-5 ovarian): > 100 µM
- TGI (OVCAR-8 ovarian): > 100 µM
- TGI (RPMI-8226 leukemia): > 100 µM
- TGI (RXF 393 renal): > 100 µM
- TGI (RXF-631 renal): > 100 µM
- TGI (SF-268 CNS): > 100 µM
- TGI (SF-295 CNS): > 100 µM
- TGI (SF-539 CNS): > 100 µM
- TGI (SK-MEL-2 melanoma): > 100 µM
- TGI (SK-MEL-28 melanoma): > 100 µM
- TGI (SK-MEL-5 melanoma): > 100 µM
- TGI (SK-OV-3 ovarian): > 100 µM
- TGI (SN12C renal): > 100 µM
- TGI (SNB-19 CNS): > 100 µM
- TGI (SNB-75 CNS): > 100 µM
- TGI (SNB-78 CNS): > 100 µM
- TGI (SW-620 colon): > 100 µM
- TGI (TK-10 renal): > 100 µM
- TGI (U251 CNS): > 100 µM
- TGI (UACC-257 melanoma): > 100 µM
- TGI (UACC-62 melanoma): > 100 µM
- TGI (UO-31 renal): > 100 µM
- TGI (XF 498 CNS): > 100 µM

SMILES: CC(C)CCCCCCCCCCCCC(=O)NCC(=O)NC1C(C)OC(Nc2ncnc3c2ncn3C)C(O)C1O (stereo unspecified)
- TGI (A498 renal): 24.2 µM
- TGI (A549 NSCLC): > 100 µM
- TGI (CAKI-1 renal): 5.6 µM
- TGI (CCRF-CEM leukemia): > 100 µM
- TGI (COLO 205 colon): > 100 µM
- TGI (DLD-1 colon): > 100 µM
- TGI (DMS 114 small cell lung): > 100 µM
- TGI (DMS 273 small cell lung): 21.6 µM
- TGI (EKVX NSCLC): > 100 µM
- TGI (HCC-2998 colon): 11.6 µM
- TGI (HCT-15 colon): > 100 µM
- TGI (HL-60(TB) leukemia): 6.08 µM
- TGI (HOP-18 NSCLC): > 30.1 µM
- TGI (HOP-62 NSCLC): > 34.2 µM
- TGI (HOP-92 NSCLC): 8.41 µM
- TGI (HT29 colon): > 100 µM
- TGI (IGROV1 ovarian): > 100 µM
- TGI (K-562 leukemia): > 100 µM
- TGI (KM12 colon): > 100 µM
- TGI (KM20L2 colon): > 100 µM
- TGI (LOX IMVI melanoma): > 100 µM
- TGI (M19-MEL melanoma): > 100 µM
- TGI (MALME-3M melanoma): > 100 µM
- TGI (MCF7 breast): > 100 µM
- TGI (MOLT-4 leukemia): > 100 µM
- TGI (NCI-H226 lung): 15.2 µM
- TGI (NCI-H23 lung): > 100 µM
- TGI (NCI-H460 lung): > 100 µM
- TGI (NCI-H522 lung): 31.9 µM
- TGI (NCI/ADR-RES ovarian): > 100 µM
- TGI (OVCAR-3 ovarian): > 100 µM
- TGI (OVCAR-4 ovarian): > 100 µM
- TGI (OVCAR-5 ovarian): 97 µM
- TGI (OVCAR-8 ovarian): > 100 µM
- TGI (P388 leukemia): > 100 µM
- TGI (P388/ADR leukemia): > 100 µM
- TGI (RPMI-8226 leukemia): > 100 µM
- TGI (RXF 393 renal): > 25.7 µM
- TGI (SF-268 CNS): > 100 µM
- TGI (SF-295 CNS): > 100 µM
- TGI (SF-539 CNS): 13.1 µM
- TGI (SK-MEL-2 melanoma): > 100 µM
- TGI (SK-MEL-28 melanoma): > 100 µM
- TGI (SK-MEL-5 melanoma): > 100 µM
- TGI (SK-OV-3 ovarian): > 94.6 µM
- TGI (SN12C renal): > 100 µM
- TGI (SN12K1 renal): > 100 µM
- TGI (SNB-19 CNS): > 31 µM
- TGI (SNB-75 CNS): 27.9 µM
- TGI (SNB-78 CNS): > 100 µM
- TGI (SW-620 colon): > 100 µM
- TGI (U251 CNS): 11.3 µM
- TGI (UACC-257 melanoma): > 100 µM
- TGI (UACC-62 melanoma): > 100 µM
- TGI (UO-31 renal): 16.9 µM
- TGI (XF 498 CNS): > 62 µM

SMILES: CNC(=O)C(C)C1CCC2(C)C=CC(=O)C(C)=C2C1O (stereo unspecified)
- TGI (A498 renal): > 100 µM
- TGI (A549 NSCLC): > 90.2 µM
- TGI (CAKI-1 renal): 91.7 µM
- TGI (CCRF-CEM leukemia): > 100 µM
- TGI (COLO 205 colon): > 64.7 µM
- TGI (DLD-1 colon): > 100 µM
- TGI (DMS 114 small cell lung): > 100 µM
- TGI (DMS 273 small cell lung): > 58.1 µM
- TGI (EKVX NSCLC): > 100 µM
- TGI (HCC-2998 colon): > 100 µM
- TGI (HCT-116 colon): > 100 µM
- TGI (HCT-15 colon): > 100 µM
- TGI (HL-60(TB) leukemia): > 100 µM
- TGI (HOP-62 NSCLC): > 100 µM
- TGI (HOP-92 NSCLC): > 100 µM
- TGI (HT29 colon): > 100 µM
- TGI (IGROV1 ovarian): > 100 µM
- TGI (K-562 leukemia): > 100 µM
- TGI (KM12 colon): > 100 µM
- TGI (KM20L2 colon): > 100 µM
- TGI (LOX IMVI melanoma): > 100 µM
- TGI (M19-MEL melanoma): > 100 µM
- TGI (MCF7 breast): > 100 µM
- TGI (MOLT-4 leukemia): > 100 µM
- TGI (NCI-H226 lung): > 100 µM
- TGI (NCI-H23 lung): > 100 µM
- TGI (NCI-H460 lung): > 100 µM
- TGI (NCI-H522 lung): > 100 µM
- TGI (NCI/ADR-RES ovarian): > 71.7 µM
- TGI (OVCAR-3 ovarian): > 100 µM
- TGI (OVCAR-4 ovarian): > 100 µM
- TGI (OVCAR-5 ovarian): > 100 µM
- TGI (OVCAR-8 ovarian): > 87.9 µM
- TGI (P388 leukemia): > 100 µM
- TGI (P388/ADR leukemia): > 100 µM
- TGI (RPMI-8226 leukemia): > 100 µM
- TGI (RXF 393 renal): > 100 µM
- TGI (SF-268 CNS): > 100 µM
- TGI (SF-295 CNS): > 70.8 µM
- TGI (SF-539 CNS): > 100 µM
- TGI (SK-MEL-2 melanoma): > 100 µM
- TGI (SK-MEL-28 melanoma): > 100 µM
- TGI (SK-MEL-5 melanoma): > 60.1 µM
- TGI (SK-OV-3 ovarian): > 100 µM
- TGI (SN12C renal): > 100 µM
- TGI (SN12K1 renal): > 100 µM
- TGI (SNB-19 CNS): > 100 µM
- TGI (SNB-75 CNS): > 100 µM
- TGI (SNB-78 CNS): > 100 µM
- TGI (SW-620 colon): > 100 µM
- TGI (U251 CNS): > 64.9 µM
- TGI (UACC-257 melanoma): > 100 µM
- TGI (UACC-62 melanoma): > 100 µM
- TGI (UO-31 renal): > 68.3 µM
- TGI (XF 498 CNS): > 100 µM
